A short description of one series: physchem. The class given is physicochemical. The source says: The physiochemical parameters of L-leucine were compared with N-acetyl-L-leucine. […] Log P is the octanol:water partition coefficient for the neutral form of a compound. In contrast, log D considers the ionization state of a molecule in aqueous (biological) solution resulting from basic groups gaining a proton and acidic groups losing a proton, and as such is better correlated with passive diffusion across membranes.

Another series has as its target T1, PepT1 (Homo sapiens, UniProt P46059).
T1 construct: expressed in transfected cells
T1 sequence (P46059 1-708): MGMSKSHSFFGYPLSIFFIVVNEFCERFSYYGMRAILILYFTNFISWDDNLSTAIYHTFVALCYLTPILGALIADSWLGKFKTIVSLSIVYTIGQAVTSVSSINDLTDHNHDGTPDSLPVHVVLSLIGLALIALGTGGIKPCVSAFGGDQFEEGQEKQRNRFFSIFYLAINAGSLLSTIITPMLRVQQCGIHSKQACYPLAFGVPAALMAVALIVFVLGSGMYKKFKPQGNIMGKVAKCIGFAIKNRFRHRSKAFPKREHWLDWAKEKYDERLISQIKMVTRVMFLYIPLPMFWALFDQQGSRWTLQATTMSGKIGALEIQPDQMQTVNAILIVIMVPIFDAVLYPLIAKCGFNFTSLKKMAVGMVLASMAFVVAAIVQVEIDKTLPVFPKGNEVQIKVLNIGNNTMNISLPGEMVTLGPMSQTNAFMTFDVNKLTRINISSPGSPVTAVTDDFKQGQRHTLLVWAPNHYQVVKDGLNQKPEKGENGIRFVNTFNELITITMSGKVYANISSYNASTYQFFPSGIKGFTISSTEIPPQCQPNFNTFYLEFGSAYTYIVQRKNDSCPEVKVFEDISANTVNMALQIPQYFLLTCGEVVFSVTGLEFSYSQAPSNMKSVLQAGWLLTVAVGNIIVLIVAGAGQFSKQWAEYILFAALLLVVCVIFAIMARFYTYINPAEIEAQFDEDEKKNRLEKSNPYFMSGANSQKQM
Briefly: Inhibition of PepT1 uptake of known substrate Gly-Sar. The conditions noted are these: probe substrate Gly-Sar 50 μM. Type of series: cell-based. The procedure: FIG. 2(d) is a line graph showing the concentration-inhibition curves for the inhibition of uptake of known substrate dipeptide Gly-Sar (50 μM) for PepT1. DMSO (0.5%) was the solvent control (SC) and the known inhibitor for the positive control (PC) was losartan (200 μM). Data were fit to either the Michaelis-Menten equation for uptake or the Hill equation for inhibition using the solvent control to define the top and the positive control inhibitor to define the bottom. Symbols represent the mean±SEM, n=3.
The known probe substrates used as positive controls are 3 μM chlorothiazide for OAT1, 2 μM estrone-3-sulfate for OAT3, 10 μM gabapentin for LAT1, 50 μM Gly-Sar for PepT1, 500 μM thiophene-2-glyoxylic acid for MCT1.
The IC50 value for the test item is determined by fitting the Hill equation in the following form:
where A % is the percent activity remaining (the mean cellular uptake observed in the solvent control sample set to 100% and the mean cellular uptake observed in the presence of the positive control inhibitor set to 0%), Top and Bottom are the upper and lower plateau of A %. [I] is the inhibitor concentration and IC50 is the inhibitor concentration where the remaining activity is at the midpoint between the Top and Bottom.

For another series, the target named is T2, OAT3 (SLC22A8) (Homo sapiens, UniProt Q8TCC7).
T2 construct: host or cells: HEK-293
T2 sequence (Q8TCC7 1-542): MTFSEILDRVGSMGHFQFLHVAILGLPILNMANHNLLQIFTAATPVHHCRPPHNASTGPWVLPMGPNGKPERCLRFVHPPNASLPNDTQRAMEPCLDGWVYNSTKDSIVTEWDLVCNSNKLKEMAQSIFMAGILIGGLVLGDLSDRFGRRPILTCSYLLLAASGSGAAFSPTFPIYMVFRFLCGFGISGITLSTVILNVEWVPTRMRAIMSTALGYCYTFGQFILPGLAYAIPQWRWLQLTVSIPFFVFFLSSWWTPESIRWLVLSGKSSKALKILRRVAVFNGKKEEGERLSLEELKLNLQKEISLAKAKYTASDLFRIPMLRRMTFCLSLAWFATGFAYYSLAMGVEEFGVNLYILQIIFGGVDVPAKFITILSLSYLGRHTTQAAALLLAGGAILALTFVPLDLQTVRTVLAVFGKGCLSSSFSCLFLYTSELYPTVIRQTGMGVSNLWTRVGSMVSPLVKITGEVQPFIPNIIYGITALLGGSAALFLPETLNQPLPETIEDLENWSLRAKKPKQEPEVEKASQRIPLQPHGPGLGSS
Briefly: Inhibition of OAT3 uptake of known substrate estrone-3-sulfate. Type of series: cell-based. The conditions noted are these: probe substrate estrone-3-sulfate 2 μM. The method, then:
DMSO (0.5%) was the solvent control (SC) and the known inhibitor diclofenac (100 μM) was the positive control (PC). Data were fit to either the Michalis-Menten equation for uptake or the Hill equation for inhibition using the solvent control to define the top and the positive control inhibitor to define the bottom. Symbols represent the mean±SEM, n=3.
Human OAT1 (SLC22A6) and OAT3 (SLC22A8) overexpressing HEK-293 cells and control cells without transfected transporter (Corning® TransportoCells™) are plated to 24-well plates and cellular uptake of 10 to 100 μg/mL of a Compound of the Disclosure is measured in the absence and presence of transporter inhibitors. Uptake of a Compound of the Disclosure into control cells is measured only without chemical inhibitors. […] Cells are grown in DMEM (Gibco 4196, high glucose, without sodium pyruvate) supplemented with MEM non-essential amino acids and 10% fetal bovine serum. Cells are re-fed with fresh medium after attachment (4-6 hours post-seeding). Cell are plated at a density of 4×10^5/well in 24-well plates coated with poly-D-lysine. Transporter assays are conducted in 400 μL of HBSS supplemented with 10 mM Hepes, pH 7.4 […]
The IC50 value for the test item is determined by fitting the Hill equation in the following form: […]

The structures appear in SMILES notation.

The term logD denotes the decadic logarithm of the distribution of all forms, ionised or not, between an organic phase and buffer at a given pH. As usually defined, the IC50 is the concentration that inhibits the measured activity by half. Higher therefore signals weaker potency in that assay. Take `CC(=O)N[C@@H](CC(C)C)C(=O)O` [N-acetyl-L-leucine]: in the series “physchem”, the logD was -2.54. The IC50 is 740 µM against PepT1 and 700 µM against OAT3 (SLC22A8).

(Values after patent US20240208895A1, “BRANCHED-CHAIN AMINO ACID DERIVATIVES TO TREAT DISEASE” (INTRABIO LTD., priority 2021, published 2024).)
